One assay has as its target T1, rat NaPi-2b (Rattus norvegicus, UniProt Q9JJ09).
T1 construct: expressed in transfected cells; host or cells: Xenopus oocytes injected with cRNA
T1 sequence (Q9JJ09 1-695): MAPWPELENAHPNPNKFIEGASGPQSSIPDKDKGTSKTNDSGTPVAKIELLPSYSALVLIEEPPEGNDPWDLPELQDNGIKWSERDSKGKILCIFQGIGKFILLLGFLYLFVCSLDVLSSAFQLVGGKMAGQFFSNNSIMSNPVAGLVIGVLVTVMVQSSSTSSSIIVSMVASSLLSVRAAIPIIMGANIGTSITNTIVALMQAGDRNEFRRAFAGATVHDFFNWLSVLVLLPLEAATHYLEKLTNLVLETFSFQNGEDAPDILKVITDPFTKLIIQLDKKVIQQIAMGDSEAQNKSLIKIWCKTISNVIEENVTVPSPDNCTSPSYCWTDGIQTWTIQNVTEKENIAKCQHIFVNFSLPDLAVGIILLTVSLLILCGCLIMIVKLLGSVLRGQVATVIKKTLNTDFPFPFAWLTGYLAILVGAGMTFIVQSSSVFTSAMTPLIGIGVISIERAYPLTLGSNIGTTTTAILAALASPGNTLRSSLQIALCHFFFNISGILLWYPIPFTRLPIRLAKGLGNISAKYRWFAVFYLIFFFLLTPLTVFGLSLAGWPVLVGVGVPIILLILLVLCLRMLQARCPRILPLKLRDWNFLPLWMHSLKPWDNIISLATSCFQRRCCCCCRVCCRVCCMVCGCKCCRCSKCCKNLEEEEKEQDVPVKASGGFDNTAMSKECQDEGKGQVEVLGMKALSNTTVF
As to the kind of experiment: Sodium-dependent phosphate uptake of Xenopus oocytes which expressed NaPi-2b (32P). The following applies: Xenopus oocytes expressing rat NaPi-2b, 32P radioactive phosphorus; read-out: IC50 (phosphate uptake inhibitory activity). It is filed as cell-based. In a few lines: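 Read-out is 32P phosphate uptake into Xenopus oocytes expressing rat intestinal NaPi-2b (cRNA injection, 2-day culture). Inhibition at 300 μM and 100 μM was derived from a single inhibition curve and given as percent.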
The IC50 is the concentration at which inhibition is half-maximal. On to `COc1ccc(/C=N/NC(=O)c2c(NC(=O)c3cccc(CN4CCC(N5CCCCC5)CC4)c3)sc3c2CCCC3)cc1` [Compound 620, 3-[1,4′]Bipiperidinyl-1′-ylmethyl-N-[3-(4-methoxy-benzylidene-hydrazinocarbonyl)-4,5,6,7-tetrahydro-benzo[b]thiophen-2-yl]-benzamide], for which the IC50 stood at 3.58 µM.
As to `O=C(Nc1cc2ccccc2cc1C(=O)N/N=C/c1ccc(Cl)c(C(F)(F)F)c1)c1cccc(CN2CCN(CCO)CC2)c1` [Compound 972, N-[3-(4-Chloro-3-trifluoromethyl-benzylidene-hydrazinocarbonyl)-naphthalen-2-yl]-3-[4-(2-hydroxy-ethyl)-piperazin-1-ylmethyl]-benzamide], the IC50 is < 3 µM.
Still for that read-out and setting: the value for `O=C(Nc1ccc(Br)cc1C(=O)N/N=C/c1ccc(Cl)c(C(F)(F)F)c1)c1cccc(CSc2nc[nH]n2)c1` [Compound 272, N-[4-Bromo-2-(4-chloro-3-trifluoromethyl-benzylidene-hydrazinocarbonyl)-phenyl]-3-(1H-[1,2,4]triazol-3-ylsulfanylmethyl)-benzamide] was 0.47 µM; that for `CCN(CCO)Cc1cccc(C(=O)Nc2ccc(Cl)cc2C(=O)N/N=C/c2ccc(OC)cc2)c1` [Compound 429, N-[4-Chloro-2-(4-methoxy-benzylidene-hydrazinocarbonyl)-phenyl]-3-{[ethyl-(2-hydroxy-ethyl)-amino]-methyl}-benzamide] was 5.88 µM.
Still for that read-out and setting: with `COc1ccc(/C=N/NC(=O)c2cc(N3CCCCC3)ccc2NC(=O)c2cccc(CN3CCc4nc5ncccc5cc4C3)c2)cc1` [Compound 898, 3-(7,8-Dihydro-5H-1,6,9-triaza-anthracen-6-ylmethyl)-N-[2-(4-methoxy-benzylidene-hydrazinocarbonyl)-4-piperidin-1-yl-phenyl]-benzamide] the figure was < 0.3 µM; with `Cc1ccc(/C=N/NC(=O)c2cc(N3CCCCC3)ccc2NC(=O)c2cccc(CN3CCC(O)CC3)c2)cc1C` [Compound 870, N-[2-(3,4-Dimethyl-benzylidene-hydrazinocarbonyl)-4-piperidin-1-yl-phenyl]-3-(4-hydroxy-piperidin-1-ylmethyl)-benzamide], 0.53 µM; with `Cc1cccc(/C=N/NC(=O)c2cc(Cl)ccc2NC(=O)c2ccncc2)c1` [Compound 191, N-[4-Chloro-2-(3-methyl-benzylidene-hydrazinocarbonyl)-phenyl]-isonicotinamide], 12.1 µM.
On the same count and under the same terms, with `CCN(CC)CCN(C)Cc1cccc(C(=O)Nc2sccc2C(=O)N/N=C/c2ccc(OC)cc2)c1` [Compound 669, 3-{[(2-Diethylamino-ethyl)-methyl-amino]-methyl}-N-[3-(4-methoxy-benzylidene-hydrazinocarbonyl)-thiophen-2-yl]-benzamide] the figure was 15.3 µM; with `C/C(=N\NC(=O)c1cc(Br)ccc1NC(=O)c1cccnc1)c1ccc(C)cc1` [Compound 216, N-[4-Bromo-2-(1-p-toluyl-ethylidene-hydrazinocarbonyl)-phenyl]-nicotinamide], 21.8 µM.
Regarding `O=C(Nc1ccc(Br)cc1C(=O)N/N=C/c1ccc(F)cc1)c1ccc(CN2CCN(CC(=O)N3CCOCC3)CC2)cc1` [Compound 730, N-[4-Bromo-2-(4-fluoro-benzylidene-hydrazinocarbonyl)-phenyl]-4-[4-(2-morpholin-4-yl-2-oxo-ethyl)-piperazin-1-ylmethyl]-benzamide], the IC50 stood at 15.7 µM.
For the compound `CCN(CC)CCN(C)Cc1cccc(C(=O)Nc2ccc(N3CCCC3)cc2C(=O)N/N=C/c2ccc(Cl)c(C(F)(F)F)c2)c1` [Compound 917, N-[2-(4-Chloro-3-trifluoromethyl-benzylidene-hydrazinocarbonyl)-4-pyrrolidin-1-yl-phenyl]-3-{[(2-diethylamino-ethyl)-methyl-amino]-methyl}-benzamide], the IC50 is 1.25 µM.
On the same count and under the same terms, with `CCN1CC(NCc2ccc(C(=O)Nc3ccc(Br)cc3C(=O)N/N=C/c3ccc(OC)cc3)cc2)CN1CC` [Compound 756, N-[4-Bromo-2-(4-methoxy-benzylidene-hydrazinocarbonyl)-phenyl]-4-[(1,2-diethyl-pyrazolidin-4-ylamino)-methyl]-benzamide] the figure was 10.3 µM.
Same read-out and setting: the value for `Cc1ccc(C=NNC(=O)c2cc(Cl)ccc2NC(=O)c2cccc(CS(=O)(=O)CCO)c2)cc1C` [Compound 493, N-[4-Chloro-2-(3,4-dimethyl-benzylidene-hydrazinocarbonyl)-phenyl]-3-(2-hydroxy-ethanesulfonylmethyl)-benzamide] was < 3 µM; that for `CCN(CC)CCN(C)Cc1ccc(C(=O)Nc2ccc(Br)cc2C(=O)NN=Cc2ccc(OC)cc2)cc1` [Compound 290, N-[4-Bromo-2-(4-methoxy-benzylidene-hydrazinocarbonyl)-phenyl]-4-{[(2-diethylamino-ethyl)-methyl-amino]-methyl}-benzamide] was 3.25 µM; that for `Cc1cccc(/C=N/NC(=O)c2cc(Br)ccc2NC(=O)c2ccc(CN(CC(C)O)CC(C)O)cc2)c1` (centres unmarked) [Compound 718, 4-{[Bis-(2-hydroxy-propyl)-amino]-methyl}-N-[4-bromo-2-(3-methyl-benzylidene-hydrazinocarbonyl)-phenyl]-benzamide] was 6.91 µM.
The same measure, in the same setting: the value for `CCN(CC)CCN(C)Cc1cccc(C(=O)Nc2ccc(Cl)cc2C(=O)N/N=C/c2ccc(Cl)c(C(F)(F)F)c2)c1` [Compound 384, N-[4-Chloro-2-(4-chloro-3-trifluoromethyl-benzylidene-hydrazinocarbonyl)-phenyl]-3-{[(2-diethylamino-ethyl)-methyl-amino]-methyl}-benzamide] was 0.25 µM; that for `Cc1csc(NC(=O)c2cccc(CSc3nc[nH]n3)c2)c1C(=O)N/N=C/c1cccc(F)c1` [Compound 554, N-[3-(3-Fluoro-benzylidene-hydrazinocarbonyl)-4-methyl-thiophen-2-yl]-3-(1H-[1,2,4]triazol-3-ylsulfanylmethyl)-benzamide] was 1.46 µM.
`Cc1ccc(/C=N/NC(=O)c2cc(Br)ccc2NC(=O)c2ccc(CSCCCO)cc2)cc1C` [Compound 273, N-[4-Bromo-2-(3,4-dimethyl-benzylidene-hydrazinocarbonyl)-phenyl]-4-(3-hydroxy-propylsulfanylmethyl)-benzamide]: the IC50 turned out to be 0.15 µM.
Same read-out and setting: with `O=C(Nc1sc2c(c1C(=O)N/N=C/c1ccc(F)cc1)CCCC2)c1cccc(CSCCCO)c1` [Compound 606, N-[3-(4-Fluoro-benzylidene-hydrazinocarbonyl)-4,5,6,7-tetrahydro-benzo[b]thiophen-2-yl]-3-(3-hydroxy-propylsulfanylmethyl)-benzamide] the figure was 1.01 µM.
The same measure, in the same setting: the value for `Cc1ccc(/C=N/NC(=O)c2c(NC(=O)c3cccc(CN(CC(C)O)CC(C)O)c3)sc(C)c2C)cc1C` (centres unmarked) [Compound 844, 3-{[Bis-(2-hydroxy-propyl)-amino]-methyl}-N-[3-(3,4-dimethyl-benzylidene-hydrazinocarbonyl)-4,5-dimethyl-thiophen-2-yl]-benzamide] was < 3 µM.
Still for that read-out and setting: with `O=C(Nc1ccc(N2CCCCC2)cc1C(=O)N/N=C/c1ccc(F)cc1)c1cccc(CN2CCC(O)CC2)c1` [Compound 872, N-[2-(4-Fluoro-benzylidene-hydrazinocarbonyl)-4-piperidin-1-yl-phenyl]-3-(4-hydroxy-piperidin-1-ylmethyl)-benzamide] the figure was < 3 µM.

Still in this assay, the particulars now being: phosphate uptake, oocytes expressing rat NaPi-2b; 300 μM, determined from inhibition curve.
In general, inhibition refers to the drop in the measured response relative to a control, in per cent. High values mean a response far below the control, low ones a response near the control. `Cc1ccc(/C=N/NC(=O)c2scc(C)c2NC(=O)c2cccc(CN(CC(C)O)CC(C)O)c2)cc1` (centres unmarked) [Compound 540, 3-{[Bis-(2-hydroxy-propyl)-amino]-methyl}-N-[4-methyl-2-(4-methyl-benzylidene-hydrazinocarbonyl)-thiophen-3-yl]-benzamide] came in with an inhibition at 300 µM of 38.4%.
Same read-out and setting: with `COc1ccc(/C=N/NC(=O)c2cscc2NC(=O)c2cccc(CN(CC(C)O)CC(C)O)c2)cc1` (centres unmarked) [Compound 979, 3-{[Bis-(2-hydroxy-propyl)-amino]-methyl}-N-[4-(4-methoxy-benzylidene-hydrazinocarbonyl)-thiophen-3-yl]-benzamide] the figure was 73.7%; with `CCN(CC)CCN(C)Cc1cccc(C(=O)Nc2ccc(Cl)cc2C(=O)N/N=C/c2ccc(OCC(=O)O)cc2)c1` [Compound 1000, (4-{[5-Chloro-2-(3-{[(2-diethylamino-ethyl)-methyl-amino]-methyl}-benzoylamino)-benzoyl]-hydrazinomethyl}-phenoxy)-acetic acid], 32.1%.
Still for that read-out and setting: with `COc1ccc(C(=O)Nc2ccccc2C(=O)N/N=C/c2cccc(C)n2)cc1OC` [Compound 247, 3,4-Dimethoxy-N-[2-(6-methyl-pyridin-2-ylmethylene-hydrazinocarbonyl)-phenyl]-benzamide] the figure was 34.8%; with `CCN(CC)c1ccc(/C=N/NC(=O)c2ccccc2NC(=O)c2ccc(OC)c(OC)c2)cc1` [Compound 241, N-[2-(4-Diethylamino-benzylidene-hydrazinocarbonyl)-phenyl]-3,4-dimethoxy-benzamide], 46.9%.

The record behind these values is patent US8134015B2, “Compound inhibiting in vivo phosphorous transport and medicine containing the same” (Kyowa Hakko Kirin Co., Ltd., priority 2003, dated 2012).
